Assay results published in patent publication US11186543B2, “Crystalline form of 3-((L-valyl)amino))-3,3-dideuterium-1-propanesulfonic acid, preparation method and uses thereof” (RISEN (SUZHOU) PHARMA TECH CO., LTD., priority 2018, dated 2021).

Tests used:
Type in all cases: physicochemical
[1] = Dynamic Vapor Sorption (DVS) analysis; conditions: from 0% RH to 80% RH, 25° C.
Protocol: The dynamic vapor sorption (DVS) instrument involved herein is Q5000TGA from TA Instruments; detection conditions: a platinum crucible, a protective atmosphere of nitrogen, a gas flow rate of 10 mL/min; and the following detection method: [table] 5. Dynamic Vapor Sorption (DVS) Analysis of Said Crystalline Form A The determination was carried out using the aforementioned instruments, determination methods, operating conditions, and parameters.

[2] = Stability test of Crystalline Form A (XRD and DSC, Day 0 / Day 10); conditions: for change of crystalline form (XRD test): within 10 days
Protocol: Sample and experimental preparation: the Crystalline Form A as prepared in Example 2 was taken as a sample; a proper amount of the sample was weighted and placed on a watch glass to form a thin layer of about 3˜5 mm in thickness.
Experimental conditions: conventional (sealed and kept in darkness at 25° C.), long-term (uncovered and kept in darkness with −60% RH at 25° C.), and accelerated (uncovered and kept in darkness with −75% RH at 40° C.) conditions.
Detection time: Day 0, Day 10.
Detected items: crystalline forms (XRD test), and melting points (DSC test).

[3] = Thermogravimetric Analysis (TGA)
Protocol: The thermogravimetric analyzer (TGA) involved herein is Q500TGA from TA Instruments; detection conditions: a platinum crucible, a protective atmosphere of nitrogen, a gas flow rate of 40 mL/min; and the following detection method: a Hi-Res sensitivity of 3.0, ramp 10.00° C./min, res 5.0 to 150.00° C., and ramp 10.00° C./min to 350° C. 4. Thermogravimetric Analysis (TGA) of Said Crystalline Form A The determination was carried out using the aforementioned instruments, determination methods, operating conditions, and parameters.

With [2H]C([2H])(CCS(=O)(=O)O)NC(=O)[C@@H](N)C(C)C [Crystalline Form A, 3-((L-valyl)amino)-3,3-dideuterium-1-propanesulfonic acid] the “hygroscopicity class (DVS determination criteria)” value [1] was “slightly hygroscopic”, the “weight change (DVS isotherm)” value [1] was “about 0.3 wt %” and the “variation of melting point (DSC test)” value [2] was “±1 °C”. The “change of crystalline form (XRD test)” value ([2]; accelerated: uncovered, kept in darkness with −75% RH at 40° C.) was “no change was detected”, the “change of crystalline form (XRD test)” value ([2]; conventional: sealed, kept in darkness at 25° C.) was “no change was detected” and the “change of crystalline form (XRD test)” value ([2]; long-term: uncovered, kept in darkness with −60% RH at 25° C.) was “no change was detected”. The “weight loss (TGA)” value ([3]; before 120° C.) was “about 0.9 wt %” and the “decomposition temperature (TGA)” value ([3]; ramp 10° C./min, nitrogen) was “about 326 °C”.
